From US20220289751A1, “COMPOUND HAVING KDM5 INHIBITORY ACTIVITY AND PHARMACEUTICAL USE THEREOF” (ONO PHARMACEUTICAL CO., LTD., priority 2019, published 2022)
Read-outs that look alike come from different tables or passages of the source.

Legend:
[1] = biological target: T1, KDM5A protein (Homo sapiens, UniProt P29375); experiment: Biochemical KDM5A inhibition assay (HTRF)
T1 construct: purchased BPS Bioscience 50110
Description: Using 384-well white ProxiPlates (PerkinElmer), representative compounds were characterized for their inhibition of KDM5A using HTRF® technology (Cisbio Bioassays). Briefly, the test compounds, reference compounds, and DMSO control (typical compound concentration range 300 pM-10 μM, final assay concentration (FAC) of DMSO 0.5%) were added to 384-well plate by the Echo® acoustic dispensing platform (Labcyte). Three (3) μ1 of KDM5A protein (BPS Bioscience, Cat #50110)(10 or 20 nM FAC) in assay buffer (50 mM MES, 50 mM NaCl, 2 mM ascorbic acid, 0.01% v/v Tween 20, pH 6.5) was added to wells and plates were incubated for 10 minutes at room temperature. Then, 3 μl of biotin-labelled H3K4-me3 substrate (Anaspec Cat #AS-64357-1; 100 nM FAC), alpha-ketoglutaric acid ([…]) and Fe(II)SO4 (FAC 100 μM) in assay buffer was added and plates were incubated for 60 minutes at room temperature. The reaction was stopped with the addition of 6 μl of anti-H3-[…]-Eu(K) (Cisbio Bioassays Cat #61KA2KAE; 0.025 μg/ml FAC)+Streptavidin XL665 (Cisbio Bioassays Cat #610SAXLA; 0.5 μg/ml FAC) in HTRF detection buffer (Cisbio Bioassays Cat #62SDBRDD). The mixture was incubated for 90 minutes at room temperature before 340 nm excitation and measurement of dual emission at 620 nm and 665 nm. The raw data (a 665 nm and a 620 nm reading from each well) for individual assay plates were analyzed. The ratio of emissions was calculated using the following calculation: Ratio=(665 nm emission/620 nm emission)*10000. Using DMSO control (maximum response or 0% inhibition) and 1 μM reference control compound (minimum response or 100% inhibition), percentage inhibition values for each well were calculated using the median values of the minimum and maximum control wells and the following calculation: % Inhibition=(Well ratio-max control ratio)/(min control ratio-max control ratio)*100. Compound IC50 values were calculated from graphs of % inhibition plotted against compound concentration, using a four parameter curve fit.

[2] = Permeability in wild type MDCK cell lines (MDCK-WT); format: in vitro ADME; details: dog, MDCK, pH 7.4, apical to basal, 10 μM test compound
Description: Wild type MDCKII cells were seeded onto an apical chamber 3 days prior to running the assay at a density of 2.3×10^5 cells per well. The integrity of cell monolayers was evaluated by examining the permeability of lucifer yellow assay using a Spectramax Gemini XS with excitation and emission at 426 nm and 538 nm respectively. Permeation of Lucifer Yellow should be ≤10×10^−6 cm/s for the experimental data to be accepted. The cell monolayers were preincubated in transport buffer (HBSS with CaCl2 and MgCl2)+25 mM HEPES, adjust to pH 7.4) at 37° C. or more than 20 min. Transport experiment was initiated by adding test compound solution (10 μM) to the apical chamber. Samples were obtained from basal chamber at 60 min, followed by addition of ice-cold acetonitrile containing internal standard. LC-MS/MS analysis was conducted as specified below. Standard calibration samples were prepared using the same matrix and analysed in the same manner. [table] […] Papp(cm/s)=(dCB/dt)×VB/(A×CA) dCB/dt is the slope of the cumulative concentration in basal side versus time VB is the volume of the basal compartment A is the area of the membrane surface area CA is the initial concentration in apical side

[3] = 20 nM enzyme concentration, read-out: IC50 value
[4] = comparative compounds, read-out: permeabilities in MDCK-WT of comparative compound
[5] = comparative compounds, enzyme concentration not stated, read-out: IC50 values (μM) of comparative compound

T1 sequence (P29375 whole entry): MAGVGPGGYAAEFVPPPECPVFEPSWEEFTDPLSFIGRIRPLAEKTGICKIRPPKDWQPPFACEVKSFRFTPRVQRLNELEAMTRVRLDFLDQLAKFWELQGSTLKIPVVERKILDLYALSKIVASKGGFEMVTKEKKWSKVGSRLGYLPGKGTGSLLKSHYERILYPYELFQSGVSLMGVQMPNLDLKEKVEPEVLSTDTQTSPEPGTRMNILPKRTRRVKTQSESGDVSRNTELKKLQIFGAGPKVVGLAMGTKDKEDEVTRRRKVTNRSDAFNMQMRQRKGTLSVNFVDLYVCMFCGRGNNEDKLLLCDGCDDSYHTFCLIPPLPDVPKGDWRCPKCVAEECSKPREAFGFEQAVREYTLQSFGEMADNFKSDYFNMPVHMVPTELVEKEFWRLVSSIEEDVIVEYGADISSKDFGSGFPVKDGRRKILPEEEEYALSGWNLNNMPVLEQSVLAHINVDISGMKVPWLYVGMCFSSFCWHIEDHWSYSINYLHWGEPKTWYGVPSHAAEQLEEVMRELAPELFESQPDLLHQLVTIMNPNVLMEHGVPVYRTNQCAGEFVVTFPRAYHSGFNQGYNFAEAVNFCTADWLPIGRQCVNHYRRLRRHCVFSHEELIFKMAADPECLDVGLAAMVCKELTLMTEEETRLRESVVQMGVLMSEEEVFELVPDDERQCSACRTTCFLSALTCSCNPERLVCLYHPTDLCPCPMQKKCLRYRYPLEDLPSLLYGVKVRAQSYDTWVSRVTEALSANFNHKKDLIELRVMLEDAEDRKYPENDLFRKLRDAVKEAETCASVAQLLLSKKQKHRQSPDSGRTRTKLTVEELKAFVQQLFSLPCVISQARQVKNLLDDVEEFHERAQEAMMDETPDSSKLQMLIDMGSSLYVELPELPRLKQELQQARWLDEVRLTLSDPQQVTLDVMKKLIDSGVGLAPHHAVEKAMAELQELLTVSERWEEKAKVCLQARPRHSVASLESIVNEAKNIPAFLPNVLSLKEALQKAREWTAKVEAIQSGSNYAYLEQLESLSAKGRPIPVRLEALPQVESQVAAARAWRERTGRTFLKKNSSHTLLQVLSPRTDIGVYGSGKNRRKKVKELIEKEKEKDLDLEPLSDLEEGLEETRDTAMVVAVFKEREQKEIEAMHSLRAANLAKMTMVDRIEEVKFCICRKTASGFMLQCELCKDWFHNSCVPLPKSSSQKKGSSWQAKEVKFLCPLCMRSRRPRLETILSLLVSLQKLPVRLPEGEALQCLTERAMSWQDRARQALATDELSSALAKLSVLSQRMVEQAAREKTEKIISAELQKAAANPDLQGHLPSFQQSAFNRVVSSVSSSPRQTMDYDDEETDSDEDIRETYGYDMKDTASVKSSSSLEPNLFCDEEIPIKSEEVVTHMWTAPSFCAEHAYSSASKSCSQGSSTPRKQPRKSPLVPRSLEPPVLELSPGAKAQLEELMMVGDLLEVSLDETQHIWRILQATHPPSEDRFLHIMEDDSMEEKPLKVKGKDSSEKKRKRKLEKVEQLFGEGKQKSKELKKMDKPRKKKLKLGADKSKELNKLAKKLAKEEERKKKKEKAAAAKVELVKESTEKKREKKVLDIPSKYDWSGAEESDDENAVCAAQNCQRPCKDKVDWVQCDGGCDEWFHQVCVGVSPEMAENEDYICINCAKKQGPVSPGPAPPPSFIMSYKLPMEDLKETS

Structure (SMILES)	IC50 [1, 3] [µM]	Papp A→B at 60 min, 10 μM ([2]; read-out: MDCK-WT (Papp)) [×10⁻⁶ cm/s]	other results
CC(C)n1c(N(C)CCC2CCCO2)nn2c(-c3cn[nH]c3)cnc2c1=O (single isomer, unassigned) [EXAMPLE 62, 3-Isopropyl-2-(methyl(2-(tetrahydrofuran-2-yl)ethyl)amino)-7-(1H-pyrazol-4-yl)imidazo[2,1-f][1,2,4]triazin-4(3H)-one]	1		
CC(c1ccccc1)c1cc(C(=O)N2CC3(C2)CN(C(=O)C2CC2)C3)n[nH]1 (single isomer, unassigned) [EXAMPLE 89, (6-(Cyclopropanecarbonyl)-2,6-diazaspiro[3.3]heptan-2-yl)(5-(1-phenylethyl)-1H-pyrazol-3-yl)methanone]		9	
CC(C)c1cc(C(=O)N2CC3(C2)CN(C(=O)C2CC2)C3C)n[nH]1 (single isomer, unassigned) [EXAMPLE 92, [2-(Cyclopropanecarbonyl)-3-methyl-2,6-diazaspiro[3.3]heptan-6-yl]-(5-isopropyl-1H-pyrazol-3-yl)methanone]	0.6	8	
O=C(NC1CN(C(=O)c2cc(C3CC3)[nH]n2)C1)C1CC12CC2 (single isomer, unassigned) [EXAMPLE 104, N-(1-(5-cyclopropyl-1H-pyrazole-3-carbonyl)azetidin-3-yl)spiro[2.2]pentane-1-carboxamide]		8	
CC(C)c1c(-c2cnn(CC3CC3)c2)[nH]c2c(C#N)cnn2c1=O [5-(1-(cyclopropylmethyl)-1H-pyrazol-4-yl)-6-isopropyl-7-oxo-4,7-dihydropyrazolo[1,5-a]pyrimidine-3-carbonitrile, reference compound]			Papp A→B at 60 min, 10 μM [2, 4]: 5.6 ×10⁻⁶ cm/s; IC50 [1, 5]: 0.005 µM
CC(C)c1cc(C(=O)N2CC[C@@H](NC(=O)C3CC3)C2)[nH]n1 [(R)—N-(1-(3-isopropyl-1H-pyrazole-5-carbonyl)pyrrolidin-3-yl)cyclopropane carboxamide, reference compound]			Papp A→B at 60 min, 10 μM [2, 4]: 4.9 ×10⁻⁶ cm/s; IC50 [1, 5]: 0.02 µM
CC(C)n1c(N2CC(c3ccccc3)C2)nn2c(-c3cnc[nH]3)cnc2c1=O [EXAMPLE 8, 7-(1H-imidazol-5-yl)-3-isopropyl-2-(3-phenylazetidin-1-yl)imidazo[2,1-f][1,2,4]triazin-4(3H)-one]	0.04	23	
CC(C)n1c(-c2cnn(CC3CC3)c2)nn2c(-c3cnc[nH]3)cnc2c1=O [EXAMPLE 19, 2-(1-(Cyclopropylmethyl)-1H-pyrazol-4-yl)-7-(1H-imidazol-5-yl)-3-isopropylimidazo[2,1-f][1,2,4]triazin-4(3H)-one]	0.03		
CC(C)n1c(-c2cnn(CC3CC3)c2)nn2c(-c3cn[nH]c3)cnc2c1=O [EXAMPLE 20, 2-(1-(Cyclopropylmethyl)-1H-pyrazol-4-yl)-3-isopropyl-7-(1H-pyrazol-4-yl)imidazo[2,1-f][1,2,4]triazin-4(3H)-one]	0.04	25	
CC(C)n1c(-c2ccc3c(ccn3C)c2)nn2c(-c3cn[nH]c3)cnc2c1=O [EXAMPLE 21, 3-Isopropyl-2-(1-methyl-1H-indol-5-yl)-7-(1H-pyrazol-4-yl)imidazo[2,1-f][1,2,4]triazin-4(3H)-one]	0.04	10	
CC(C)n1c(-c2cccs2)nn2c(-c3cnc[nH]3)cnc2c1=O [EXAMPLE 26, 7-(1H-Imidazol-5-yl)-3-isopropyl-2-(thiophen-2-yl)imidazo[2,1-f][1,2,4]triazin-4(3H)-one]	0.2	20	
CC(C)n1c(-c2cccs2)nn2c(-c3cn[nH]c3)cnc2c1=O [EXAMPLE 27, 3-Isopropyl-7-(1H-pyrazol-4-yl)-2-(thiophen-2-yl)imidazo[2,1-f][1,2,4]triazin-4(3H)-one]	0.05		
CC(C)n1c(-c2cnn(CC3CC3)c2)nc2c(C(N)=O)ccnc2c1=O [EXAMPLE 30, 2-(1-(Cyclopropylmethyl)-1H-pyrazol-4-yl)-3-isopropyl-4-oxo-3,4-dihydropyrido[3,2-d]pyrimidine-8-carboxamide]	0.3	37	
CC(C)n1c(-c2ccccc2)nc2c(C(N)=O)ccnc2c1=O [EXAMPLE 31, 3-isopropyl-4-oxo-2-phenyl-3,4-dihydropyrido[3,2-d]pyrimidine-8-carboxamide]	0.2	64	
CCNC(=O)N1CC2(C1)CN(C(=O)c1cc(C(C)C)[nH]n1)C2 [EXAMPLE 41, N-Ethyl-6-(5-isopropyl-1H-pyrazole-3-carbonyl)-2,6-diazaspiro[3.3]heptane-2-carboxamide]	0.03		
CC(=O)NCCn1cc(-c2nn3c(-c4cn[nH]c4)cnc3c(=O)n2C(C)C)cn1 [EXAMPLE 47, N-(2-(4-(3-isopropyl-4-oxo-7-(1H-pyrazol-4-yl)-3,4-dihydroimidazo[2,1-f][1,2,4]triazin-2-yl)-1H-pyrazol-1-yl)ethyl)acetamide]	0.05		
Cc1ccc(-n2cc(-c3cnc4c(=O)n(C(C)C)c(C)nn34)cn2)nc1 [EXAMPLE 67, 3-Isopropyl-2-methyl-7-(1-(5-methylpyridin-2-yl)-1H-pyrazol-4-yl)imidazo[2,1-f][1,2,4]triazin-4(3H)-one]	2.9		
CC(C)c1cc(C(=O)c2cnn3c(=O)c(C(C)C)c(-c4ccccc4)n(C)c23)n[nH]1 [EXAMPLE 68, 6-Isopropyl-3-(5-isopropyl-1H-pyrazole-3-carbonyl)-4-methyl-5-phenylpyrazolo[1,5-a]pyrimidin-7 (4H)-one]	0.4		
O=C(c1cc(C2CCCCC2)[nH]n1)N1CC2(C1)CN(C(=O)C1CC1)C2 [EXAMPLE 73, (5-Cyclohexyl-1H-pyrazol-3-yl)(6-(cyclopropanecarbonyl)-2,6-diazaspiro[3.3]heptan-2-yl)methanone]		16	
CC(C)c1cc(C(=O)N2CC(NC(=O)C3CC3)C2)n[nH]1 [EXAMPLE 80, N-(1-(5-Isopropyl-1H-pyrazole-3-carbonyl)azetidin-3-yl)cyclopropanecarboxamide]	0.2		
CC(C)n1cnc(C(=O)N2CC3(C2)CN(C(=O)C2CC2)C3)c1 [EXAMPLE 81, (6-(Cyclopropanecarbonyl)-2,6-diazaspiro[3.3]heptan-2-yl)(1-isopropyl-1H-imidazol-4-yl)methanone]	0.1		
CC(C)c1cc(C(=O)N2CC3(C2)CN(C(=O)C2(C)CC2)C3)n[nH]1 [EXAMPLE 96, (5-Isopropyl-1H-pyrazol-3-yl)(6-(1-methylcyclopropane-1-carbonyl)-2,6-diazaspiro[3.3]heptan-2-yl)methanone]	0.03		
CC(C)c1cc(C(=O)N2CC3(C2)CN(C(=O)c2cccs2)C3)n[nH]1 [EXAMPLE 99, (5-Isopropyl-1H-pyrazol-3-yl)(6-(thiophene-2-carbonyl)-2,6-diazaspiro[3.3]heptan-2-yl)methanone]		20	
CC(=O)NCCn1cc(-c2nn3c(-c4c[nH]cn4)cnc3c(=O)n2C(C)C)cn1 [EXAMPLE 121, N-(2-(4-(7-(1H-Imidazol-4-yl)-3-isopropyl-4-oxo-3,4-dihydroimidazo[2,1-f][1,2,4]triazin-2-yl)-1H-pyrazol-1-yl)ethyl)acetamide]	0.09		
CC(C)c1cc(C(=O)N2CC3(C2)CN(C(=O)c2nn(C)cc2F)C3)n[nH]1 [EXAMPLE 126, [2-(4-Fluoro-1-methyl-pyrazole-3-carbonyl)-2,6-diazaspiro[3.3]heptan-6-yl]-(5-isopropyl-1H-pyrazol-3-yl)methanone]	0.008		
CC(C)c1cc(C(=O)N2CC3(CON(C(=O)C(C)(C)C)C3)C2)n[nH]1 [EXAMPLE 132, 1-[2-(5-Isopropyl-1H-pyrazole-3-carbonyl)-6-oxa-2,7-diazaspiro[3.4]octan-7-yl]-2,2-dimethyl-propan-1-one]		19	
